What was measured:
Ang2 = conditions: patients with metastatic RCC under sunitinib treatment; cited from earlier work
clinical = conditions: human, in vivo, Mean

For `CCN(CC)CCNC(=O)c1c(C)[nH]c(/C=C2\C(=O)Nc3ccc(F)cc32)c1C` [Sunitinib, sunitinib], the “decrease in plasma Ang2 levels” value (Ang2) is given as 80%, the AUC(0-t) (clinical; 3 mg/kg, Sunitinib AUC (AUC0-24)) is given as 1300 ng·h/mL and the Cmax (clinical; 3 mg/kg, Sunitinib Cmax) is given as 64.2 ng/mL. It also gave a Tmax (clinical; 3 mg/kg, Sunitinib Tmax) of 8 h, an AUC(0-t) (clinical; 10 mg/kg, Sunitinib AUC (AUC0-24)) of 1250 ng·h/mL and a Cmax (clinical; 10 mg/kg, Sunitinib Cmax) of 61.8 ng/mL. It also gave a Tmax (clinical; 10 mg/kg, Sunitinib Tmax) of 8.1 h.

`CNC(=O)c1cc(Oc2ccc(NC(=O)Nc3ccc(Cl)c(C(F)(F)F)c3)cc2)ccn1` [Sorafenib, sorafenib] gave an AUC(0-t) (clinical; 3 mg/kg, Sorafenib AUC (AUC0-12)) of 2580 ng·h/mL, a Cmax (clinical; 3 mg/kg, Sorafenib Cmax) of 466 ng/mL and a Tmax (clinical; 3 mg/kg, Sorafenib Tmax) of 1.1 h. For the same molecule, the AUC(0-t) (clinical; 10 mg/kg, Sorafenib AUC (AUC0-12)) was 3130 ng·h/mL, the Cmax (clinical; 10 mg/kg, Sorafenib Cmax) was 559 ng/mL and the Tmax (clinical; 10 mg/kg, Sorafenib Tmax) was 1 h.

Reference: publication PMC4754667 (Clinical genitourinary cancer, 2013)
